Measured values from US10875829B1, “Azetidine derivatives useful as modulators of cortical catecholaminergic neurotransmission” (Integrative Research Laboratories Sweden AB, priority 2016, dated 2020).
Structures can show the parent of a compound that is named as a salt. Where two headings read alike, the source gives them in different places. Marks after values point to notes of the source that are not given here.

How the values were obtained:
NA, DA and 5-HT = assay: In vivo brain microdialysis: extracellular monoamines in striatum and frontal cortex; set-up: species or system Sprague-Dawley rats; details: 50 μmol/kg s.c., n=1-3; for response vs control in vivo at 50 µmol/kg: Rattus norvegicus, sc
Text: The microdialysis technique is a well-established technique for measuring extracellular levels of neurotransmitters (Ungerstedt, J Int Med, 1991, 230; 365-73). The microdialysis technique was used to measure the effect of compounds disclosed herein upon the efflux of monoamine transmitters (NA, DA and 5-HT) in striatum and frontal cortex in conscious, freely moving rats.
Male Sprague-Dawley rats weighing 280-320 g were used throughout the experiments. Before the experiment the animals were housed in groups, maximum five animals in each cage, with free access to water and food. The animals were housed at least one week prior to surgery and use in the experiments.
A modified version (Waters et al., J Neural Transm Gen Sect, 1994, 98(1); 39-55) of the !-shaped probe (Santiago and Westerink, N-S Arch Pharmacol, 1990, 342; 407-14) with the AN69 polyacrylonitrile/sodium methyl sulfonate copolymer (HOSPAL; o.d/i.d. 310/220 μm: dialysis membrane (Gambro, Lund, Sweden) was used in the microdialysis experiments. In the dorsal striatum, probes with an exposed length of 3 mm of dialysis membrane were used and in the prefrontal cortex the corresponding length was 2.5 mm. The rats were operated under isoflurane inhalation anesthesia while mounted into a Kopf stereotaxic instrument. Coordinates were calculated relative to bregma; dorsal striatum AP+1.0, ML±2.6, DV 6.2; Pf cortex, AP+3.2, ML±1.2, DV −4.0 8°, according to Paxinos and Watson (New York, Academic Press, 1986; FIG. 8 and FIG. 14). The dialysis probe was positioned in a burr hole under stereotaxic guidance and cemented with phosphatine dental cement (DAB Dental).
The rats were housed individually in cages for 48 h before the dialysis experiments, allowing them to recover from surgery and minimizing the risk of drug interactions with the anesthetics during the following experiments. During this period the rats had free access to food and water. On the day of the experiment the rats were connected to a micro-perfusion pump via a swivel and were replaced in the cage where they could move freely within its confinements. The perfusion medium was a Ringer's solution containing (in mmol/l): NaCl; 140, CaCl2); 1.2, KCl; 3.0, MgCl2; 1.0 (Moghaddam and Bunney. Neurochem., 1989, 53; 652-4). The pump was set to a perfusion speed of 2 μl/min and 40 μl sample volume were collected every 20 min.
The rats were perfused for at least 40 min before sampling began. Five fractions of each 20 min were collected and the last three were used for the establishment of the baseline. After collection of baseline fractions, the pharmacological challenge to the dialysis experiment started. Test compounds were administrated by injection (s.c.) in a volume of 5 ml/kg, with 0.9% NaCl (saline) as vehicle.
The analytical method were based on two chromatographic separations dedicated for amines or acids. Two chromatographic systems shared a common auto injector with a 10-port valve and two sample loops for simultaneous injection on the two systems.
The acids were separated by reversed phase chromatography while the amines were separated by reversed phase ion pairing chromatography preceded by a reverse phase separation in a column switching configuration. Three separation columns (Luna C18 (2), dp 3 μm, 2 mm i.d., Phenomenex) of different lengths were used. Electrochemical detection was accomplished on glassy carbon electrodes (MF-1000, Bioanalytical Systems, Inc.)
The aqueous mobile phase (0.6 ml/min) for the acid system contained citric acid (40 mM, dipotassium hydrogen phosphate 10 mM, methanol 8-11% (v/v) and EDTA 0.1 mM. Column length was 30 mm and detection potential relative to Ag/AgCl reference was 0.74V.
The aqueous ion pairing mobile phase (0.4 ml/min) for the amine system contained citric acid 5 mM, sodium citrate 10 mM, acetone 9% (v/v), tetrahydrofurane 3% (v/v), dodecane sulphonic acid 0.025 mM, and EDTA 0.1 mM. Column length was 50 mm and the preceding column was 20 mm. […]

[1] = biological target: Human Dopamine Transporter (DAT (h)) (Homo sapiens (Human), UniProt Q01959); assay: Radioligand binding assay, human dopamine transporter ([3H]BTCP); details: 2 h; single concentration 1.0 E-5 M, duplicate, mean values
Sequence of Human Dopamine Transporter (DAT (h)) (Q01959 whole entry): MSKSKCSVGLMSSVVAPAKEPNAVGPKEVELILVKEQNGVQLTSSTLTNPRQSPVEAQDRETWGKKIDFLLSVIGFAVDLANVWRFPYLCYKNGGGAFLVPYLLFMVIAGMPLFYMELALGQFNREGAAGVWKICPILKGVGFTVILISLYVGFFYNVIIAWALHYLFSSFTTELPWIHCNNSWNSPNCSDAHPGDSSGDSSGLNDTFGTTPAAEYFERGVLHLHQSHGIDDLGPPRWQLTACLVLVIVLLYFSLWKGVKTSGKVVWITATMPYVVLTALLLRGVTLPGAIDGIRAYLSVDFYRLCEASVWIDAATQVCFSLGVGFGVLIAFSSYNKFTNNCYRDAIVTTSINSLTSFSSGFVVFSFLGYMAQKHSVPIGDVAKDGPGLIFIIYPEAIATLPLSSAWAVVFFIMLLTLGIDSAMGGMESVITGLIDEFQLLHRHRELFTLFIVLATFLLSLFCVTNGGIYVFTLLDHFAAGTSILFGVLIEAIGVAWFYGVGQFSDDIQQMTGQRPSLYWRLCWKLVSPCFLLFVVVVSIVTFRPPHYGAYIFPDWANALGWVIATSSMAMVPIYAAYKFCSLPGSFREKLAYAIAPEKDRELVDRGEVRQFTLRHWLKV
Experimental: (The measurement was performed as described in Pristuba, Z. B., Wilson, J. M., Hoffman, B. J., Kish, S. J. and Nisnik, H. B. (1994), Pharmacological heterogeneity of the cloned and native human dopamine transporter: disassociation of [3H]WIN 35,428 and [3H]GBR 12,935 binding, Mol. Pharmacol., 45: 125)
Cell membrane homogenates (20 μg protein) are incubated for 120 min at 4° C. with 4 nM
(§1) [3H]BTCP in the absence or presence of the test compound in a buffer containing 50 mM Tris-HCl (pH 7.4) and 100 mM NaCl. Nonspecific binding is determined in the presence of 10 μM BTCP. Following incubation, the samples are filtered rapidly under vacuum through glass fiber filters (GF/B, Packard) presoaked with 0.3% PEI and rinsed several times with ice-cold 50 mM Tris-HCl using a 96-sample cell harvester (Unifilter, Packard). The filters are dried then counted for radioactivity in a scintillation counter (Topcount, Packard) using a scintillation cocktail (Microscint 0, Packard).
(§2) The results are expressed as a percent inhibition of the control radioligand specific binding.
(§3) […] Reported values are mean values.

[2] = biological target: Human 5-HT Transporter (SERT (h)) (Homo sapiens (Human), UniProt P31645); assay: Radioligand binding assay, human 5-HT transporter ([3H]imipramine); details: 1 h; single concentration 1.0 E-5 M, duplicate, mean values
Sequence of Human 5-HT Transporter (SERT (h)) (P31645 whole entry): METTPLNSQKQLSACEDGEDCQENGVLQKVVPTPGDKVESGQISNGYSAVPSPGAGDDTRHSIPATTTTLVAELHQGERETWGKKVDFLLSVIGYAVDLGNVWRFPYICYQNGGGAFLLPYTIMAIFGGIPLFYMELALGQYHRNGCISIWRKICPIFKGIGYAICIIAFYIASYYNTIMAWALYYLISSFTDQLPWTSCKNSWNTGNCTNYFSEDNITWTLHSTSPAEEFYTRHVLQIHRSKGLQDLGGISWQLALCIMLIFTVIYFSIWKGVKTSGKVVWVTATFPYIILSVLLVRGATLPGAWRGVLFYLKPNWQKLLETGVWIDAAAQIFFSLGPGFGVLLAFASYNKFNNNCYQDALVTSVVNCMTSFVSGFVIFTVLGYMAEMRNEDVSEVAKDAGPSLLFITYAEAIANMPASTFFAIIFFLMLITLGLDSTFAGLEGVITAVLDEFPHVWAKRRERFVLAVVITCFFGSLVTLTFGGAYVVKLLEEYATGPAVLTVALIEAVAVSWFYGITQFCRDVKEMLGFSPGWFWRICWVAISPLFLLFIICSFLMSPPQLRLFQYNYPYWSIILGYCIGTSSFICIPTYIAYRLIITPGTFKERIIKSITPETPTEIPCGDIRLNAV
Experimental: (The measurement was performed as described in Tatsumi, M., Jansen, K., Blakely, R. D. and Richelson, E. (1999), Pharmacological profile of neuroleptics at human monoamine transporters, Eur. J. Pharmacol.
Cell membrane homogenates (12 μg protein) are incubated for 60 min at 22° C. with 2 nM [3H]imipramine in the absence or presence of the test compound in a buffer containing 50 mM Tris-HCl (pH 7.4), 120 mM NaCl, 5 mM KCl and 0.1% BSA.
Nonspecific binding is determined in the presence of 10 μM imipramine.
Following incubation, the samples are filtered rapidly under vacuum through glass fiber filters (GF/B, Packard) presoaked with 0.3% PEI and rinsed several times with an ice-cold buffer containing 50 mM Tris-HCl and 150 mM NaCl using a 96-sample cell harvester (Unifilter, Packard). The filters are dried then counted for radioactivity in a scintillation counter (Topcount, Packard) using a scintillation cocktail (Microscint 0, Packard).
The results are expressed as a percent inhibition of the control radioligand specific binding
as §3

[3] = biological target: Human Norepinephrine Transporter (NET (h)) (Homo sapiens (Human), UniProt P23975); assay: Radioligand binding assay, human norepinephrine transporter ([3H]nisoxetine); details: 2 h; single concentration 1.0 E-5 M, duplicate, mean values
Sequence of Human Norepinephrine Transporter (NET (h)) (P23975 whole entry): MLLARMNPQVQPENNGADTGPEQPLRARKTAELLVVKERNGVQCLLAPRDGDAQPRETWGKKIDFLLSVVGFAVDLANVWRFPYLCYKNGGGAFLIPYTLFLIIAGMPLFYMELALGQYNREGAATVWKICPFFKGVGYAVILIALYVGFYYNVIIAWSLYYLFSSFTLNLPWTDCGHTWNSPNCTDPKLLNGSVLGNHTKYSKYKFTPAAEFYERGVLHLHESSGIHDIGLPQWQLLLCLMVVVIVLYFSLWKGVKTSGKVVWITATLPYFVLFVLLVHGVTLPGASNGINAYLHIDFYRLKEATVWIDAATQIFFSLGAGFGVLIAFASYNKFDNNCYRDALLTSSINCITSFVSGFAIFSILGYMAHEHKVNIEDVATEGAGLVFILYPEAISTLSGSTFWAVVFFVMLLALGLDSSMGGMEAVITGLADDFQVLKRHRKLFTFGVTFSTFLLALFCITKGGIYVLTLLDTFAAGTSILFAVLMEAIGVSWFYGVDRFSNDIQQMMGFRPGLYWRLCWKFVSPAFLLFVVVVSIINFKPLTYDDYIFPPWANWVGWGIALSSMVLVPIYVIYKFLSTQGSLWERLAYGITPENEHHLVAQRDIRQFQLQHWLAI
Experimental: (The measurement was performed as described in Pacholczyk, T., Blakely, R. D. and Amara, S. G. (1991), Expression cloning of a cocaine- and antidepressant-sensitive human noradrenaline transporter, Nature, 350: 350)
as §1, with “Cell membrane homogenates (20 μg protein) are incubated for 120 min at 4° C. with 1 nM [3H]nisoxetine” for “[3H]BTCP”, “7.4), 120 mM NaCl” for “7.4)”, “5” for “100”, “KCl.” for “NaCl.”, “1” for “10”, “desipramine.” for “BTCP.”
as §2, §3

[4] = frontal cortex, read-out: 5-HT FC, maximum effect compared to baseline ± SEM
[5] = frontal cortex, read-out: DA FC, maximum effect compared to baseline ± SEM
[6] = frontal cortex, read-out: NA FC, maximum effect compared to baseline ± SEM
[7] = striatum, read-out: DA Stri, maximum effect compared to baseline ± SEM
[8] = striatum, read-out: 5-HT Stri, maximum effect compared to baseline ± SEM

| Compound | response vs control in vivo at 50 µmol/kg (NA, DA and 5-HT; [4]) [%] | response vs control in vivo at 50 µmol/kg (NA, DA and 5-HT; [5]) [%] | response vs control in vivo at 50 µmol/kg (NA, DA and 5-HT; [6]) [%] | response vs control in vivo at 50 µmol/kg (NA, DA and 5-HT; [7]) [%] | inhibition at 10 µM [1] [%] | inhibition at 10 µM [2] [%] | inhibition at 10 µM [3] [%] | NA Stri, maximum effect compared to baseline ± SEM (NA, DA and 5-HT; striatum) | response vs control in vivo at 50 µmol/kg (NA, DA and 5-HT; [8]) [%] |
| --- | --- | --- | --- | --- | --- | --- | --- | --- | --- |
| Fc1ccc(OC2CNC2)c(F)c1F [Example 10, 3-(2,3,4-trifluoro-phenoxy)azetidine fumaric acid salt] | 709 ± 139 | 466 ± 161 | 799 ± 137 | 126 ± 10 | 15 | 29 | -2 |  |  |
| CN1CC(Oc2c(F)c(F)cc(F)c2F)C1 [Example 38, 1-methyl-3-(2,3,5,6-tetrafluorophenoxy)azetidine hydrochloric acid salt] | 148 ± 12 | 467 ± 20 | 422 ± 102 | 203 ± 8 | 11 | -11 | 6 | 306 ± 146^a % of control | 205 ± 20 |
| Fc1c(F)c(F)c(OC2CNC2)c(F)c1F [Example 43, 3-(2,3,4,5,6-pentafluoro-phenoxy)azetidine hydrochloric acid salt] |  |  |  |  | 11 | -7.6 | -1 |  |  |
| Fc1cc(F)c(OC2CNC2)c(F)c1 [Example 49, 3-(2,4,6-Trifluorophenoxy)azetidine hydrochloric acid salt] |  | 391 ± 131 | 862 ± 437 | 135 ± 2 | 12 | 10 | 6 | 353^b % of control | 573 ± 1 |
| Fc1cc(OC2CNC2)cc(F)c1F [Example 50, 3-(3,4,5-Trifluorophenoxy)azetidine hydrochloric acid salt] | 752 ± 235 | 787 ± 131 |  | 139 ± 20 | 17 | 28 | 3 |  | 574 ± 45 |
| Fc1cc(F)c(OC2CNC2)cc1F [Example 51, 3-(2,4,5-Trifluorophenoxy)azetidine hydrochloric acid salt] | 998 ± 470 | 389 ± 134 | 910 ± 389 | 144 ± 4 | 10 | 25 | 5 | 475^b % of control | 663 ± 63 |
